Assay results from US10696693B2, “Fused imidazole derivatives as TGF-beta inhibitors” (Rigel Pharmaceuticals, Inc., priority 2014, dated 2020).
Read-outs that look alike come from different tables or passages of the source.

What was measured:
[1] = tested on: GDF8; assay: AlphaScreen SureFire p-SMAD3 (Ser423/425) assay, GDF8-stimulated cells; format: cell-based
Method in brief: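 A SureFire AlphaScreen assay measured phosphorylation of endogenous SMAD-3 at Ser423/425 in cell lysates. Cells were treated with three-fold serially diluted compounds in DMSO for about 10 minutes, then stimulated with GDF8. After medium removal, cells were lysed in 1× Lysis Buffer (about 25 μL) with gentle shaking for 5-10 minutes.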

[2] = tested on: TGF-β; assay: AlphaScreen SureFire p-SMAD3 (Ser423/425) assay, TGF-β-stimulated cells; format: cell-based
Method in brief: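 The p-SMAD-3 (Ser423/425) SureFire assay measured phosphorylation of endogenous SMAD-3 in cell lysates. Cells were plated overnight in collagen-coated plates, exposed to three-fold serially diluted compounds for about 10 minutes, then stimulated with TGFβ. Lysates (5 μL) received acceptor bead mix for 2 hours, then donor beads for 1½ hours before AlphaScreen reading.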

[3] = read-out: GDF8: inhibition of GDF8 signaling, GDF pSMAD (MPC11), p-SMAD3 (Ser423/425) AlphaScreen in cell lysate, GDF8 stimulation
[4] = read-out: TGF-β: inhibition of TGF-β signaling, TGF-β pSMAD (MPC-11), p-SMAD3 (Ser423/425) AlphaScreen in cell lysate, TGF-β stimulation
[5] = Mus musculus, MPC-11, read-out: GDF8: inhibition of GDF8 signaling, GDF pSMAD (MPC11), p-SMAD3 (Ser423/425) AlphaScreen in cell lysate, GDF8 stimulation
[6] = Mus musculus, MPC-11, read-out: TGF-β: inhibition of TGF-β signaling, TGF-β pSMAD (MPC-11), p-SMAD3 (Ser423/425) AlphaScreen in cell lysate, TGF-β stimulation
[7] = Mus musculus, MPC-11, p-SMAD3 (Ser423/425) AlphaScreen in cell lysate, MPC11, GDF8 stimulation, read-out: GDF8: inhibition of GDF8 signaling, GDF pSMAD (MPC11)
[8] = Mus musculus, p-SMAD3 (Ser423/425) AlphaScreen in cell lysate, MPC-11, TGF-β stimulation, read-out: TGF-β: inhibition of TGF-β signaling, TGF-β pSMAD (MPC-11)

| Structure (SMILES) | IC50 [1, 5] [nM] | IC50 [2, 6] [nM] | IC50 [1, 7] [nM] | IC50 [2, 8] [nM] | other results |
| --- | --- | --- | --- | --- | --- |
| Cc1cc(-c2nc3n(c2-c2ccc4ncccc4c2)CCC3)c(Cl)cc1F [Compound 322, 6-(2-(2-chloro-4-fluoro-5-methylphenyl)-6,7-dihydro-5H-pyrrolo[1,2-a]imidazol-3-yl)quinoline] |  |  |  |  | IC50 [1, 3]: > 1000 nM; IC50 [2, 4]: > 1000 nM |
| Cc1cc(-c2nc3n(c2-c2ccc4ncsc4c2)CCC3)c(Cl)cc1F [Compound 323, 6-(2-(2-chloro-4-fluoro-5-methylphenyl)-6,7-dihydro-5H-pyrrolo[1,2-a]imidazol-3-yl)benzo[d]thiazole] |  |  |  |  | IC50 [1, 3]: > 1000 nM; IC50 [2, 4]: > 1000 nM |
| Fc1ccc(-c2nc3n(c2-c2ccc4[nH]ncc4c2)CC2(CCCC2)C3)cc1 [Compound 324, 2′-(4-fluorophenyl)-3′-(1H-indazol-5-yl)-5′H,7′H-spiro[cyclopentane-1,6′-pyrrolo[1,2-a]imidazole]] | > 1000 | > 1000 |  |  |  |
| Fc1ccc(-c2nc3n(c2-c2ccc4ncsc4c2)CC2(CCCC2)C3)cc1 [Compound 325, 6-(2′-(4-fluorophenyl)-5′H,7′H-spiro[cyclopentane-1,6′-pyrrolo[1,2-a]imidazol]-3′-yl)benzo[d]thiazole] | > 1000 | > 1000 |  |  |  |
| Fc1ccc(-c2nc3n(c2-c2ccc4nccnc4c2)CC2(CCCC2)C3)cc1 [Compound 326, 2′-(4-fluorophenyl)-3′-(quinoxalin-6-yl)-5′H,7′H-spiro[cyclopentane-1,6′-pyrrolo[1,2-a]imidazole]] | > 1000 | > 1000 |  |  |  |
| Fc1ccc(-c2nc3n(c2-c2ccc4ncccc4c2)CC2(CCCC2)C3)cc1 [Compound 327, 2′-(4-fluorophenyl)-3′-(quinolin-6-yl)-5′H,7′H-spiro[cyclopentane-1,6′-pyrrolo[1,2-a]imidazole]] | > 1000 | > 1000 |  |  |  |
| Cc1c(F)ccc(-c2nc3n(c2-c2ccc4[nH]ncc4c2)CCC3)c1C [Compound 328, 5-(2-(4-fluoro-2,3-dimethylphenyl)-6,7-dihydro-5H-pyrrolo[1,2-a]imidazol-3-yl)-1H-indazole] | 100 to 1000 | > 1000 |  |  |  |
| Cc1c(F)ccc(-c2nc3n(c2-c2ccc4ncsc4c2)CCC3)c1C [Compound 329, 6-(2-(4-fluoro-2,3-dimethylphenyl)-6,7-dihydro-5H-pyrrolo[1,2-a]imidazol-3-yl)benzo[d]thiazole] | 100 to 1000 | > 1000 |  |  |  |
| Cc1c(F)ccc(-c2nc3n(c2-c2ccc4nccnc4c2)CCC3)c1C [Compound 330, 6-(2-(4-fluoro-2,3-dimethylphenyl)-6,7-dihydro-5H-pyrrolo[1,2-a]imidazol-3-yl)quinoxaline] | > 1000 | > 1000 |  |  |  |
| Cc1c(F)ccc(-c2nc3n(c2-c2ccc4ncccc4c2)CCC3)c1C [Compound 331, 6-(2-(4-fluoro-2,3-dimethylphenyl)-6,7-dihydro-5H-pyrrolo[1,2-a]imidazol-3-yl)quinoline] | > 1000 | > 1000 |  |  |  |
| O=C(O)C1CCC2(CC1)Cc1nc(-c3ccc(F)cc3)c(-c3ccc4ncsc4c3)n1C2 (centres unmarked) [Compound 332, 3′-(benzo[d]thiazol-6-yl)-2′-(4-fluorophenyl)-5′H,7′H-spiro[cyclohexane-1,6′-pyrrolo[1,2-a]imidazole]-4-carboxylic acid] | 100 to 1000 | > 1000 |  |  |  |
| CCOC(=O)C1CCC2(CC1)Cc1nc(-c3ccc(F)cc3)c(-c3ccc4nccnc4c3)n1C2 (centres unmarked) [Compound 333, Ethyl 2′-(4-fluorophenyl)-3′-(quinoxalin-6-yl)-5′H,7′H-spiro[cyclohexane-1,6′-pyrrolo[1,2-a]imidazole]-4-carboxylate] | > 1000 | > 1000 |  |  |  |
| O=C(O)C1CCC2(CC1)Cc1nc(-c3ccc(F)cc3)c(-c3ccc4nccnc4c3)n1C2 (centres unmarked) [Compound 334, 2′-(4-fluorophenyl)-3′-(quinoxalin-6-yl)-5′H,7′H-spiro[cyclohexane-1,6′-pyrrolo[1,2-a]imidazole]-4-carboxylic acid] | > 1000 | > 1000 |  |  |  |
| OCC1CCC2(CC1)Cc1nc(-c3ccc(F)cc3)c(-c3ccc4ncsc4c3)n1C2 (centres unmarked) [Compound 335, (3′-(benzo[d]thiazol-6-yl)-2′-(4-fluorophenyl)-5′H,7′H-spiro[cyclohexane-1,6′-pyrrolo[1,2-a]imidazol]-4-yl)methanol] | > 1000 | > 1000 |  |  |  |
| OCC1CCC2(CC1)Cc1nc(-c3ccc(F)cc3)c(-c3ccc4nccnc4c3)n1C2 (centres unmarked) [Compound 336, (2′-(4-fluorophenyl)-3′-(quinoxalin-6-yl)-5′H,7′H-spiro[cyclohexane-1,6′-pyrrolo[1,2-a]imidazol]-4-yl)methanol] | > 1000 | > 1000 |  |  |  |
| Fc1ccc(Cl)cc1-c1nc2n(c1-c1ccc3nccnc3c1)CCC2 [Compound 337, 6-(2-(5-chloro-2-fluoropheny)-6,7-dihydro-5H-pyrrolo[1,2-a]imidazol-3-yl)quinoxaline] |  |  | < 50 | < 50 |  |

| Structure (SMILES) | IC50 [1, 5] [nM] | IC50 [2, 6] [nM] | IC50 [1, 7] [nM] | IC50 [2, 8] [nM] | other results |
| --- | --- | --- | --- | --- | --- |
| Fc1ccc(Cl)cc1-c1nc2n(c1-c1ccc3ncccc3c1)CCC2 [Compound 338, 6-(2-(5-chloro-2-fluoropheny)-6,7-dihydro-5H-pyrrolo[1,2-a]imidazol-3-yl)quinoline] |  |  | < 50 | < 50 |  |
| Fc1ccc(Cl)cc1-c1nc2n(c1-c1ccc3ncsc3c1)CCC2 [Compound 339, 6-(2-(5-chloro-2-fluoropheny)-6,7-dihydro-5H-pyrrolo[1,2-a]imidazol-3-yl)benzo[d]thiazole] |  |  | < 50 | < 50 |  |
| Cc1ccc(Cl)cc1-c1nc2n(c1-c1ccc3ncccc3c1)CCC2 [Compound 340, 6-(2-(5-chloro-2-methylpheny)-6,7-dihydro-5H-pyrrolo[1,2-a]imidazol-3-yl)quinoline] |  |  | 100 to 1000 | 100 to 1000 |  |
| Cc1ccc(-c2ccc3nccnc3c2)cc1-c1nc2n(c1-c1ccc3nccnc3c1)CCC2 [Compound 341, 6-(4-methyl-3-(3-(quinoxalin-6-yl)-6,7-dihydro-5H-pyrrolo[1,2-a]imidazol-2-yl)phenyl)quinoxaline] | > 1000 | > 1000 |  |  |  |
| Cc1ccc(Cl)cc1-c1nc2n(c1-c1ccc3nccnc3c1)CCC2 [Compound 342, 6-(2-(5-chloro-2-methylpheny)-6,7-dihydro-5H-pyrrolo[1,2-a]imidazol-3-yl)quinoxaline] |  |  | 100 to 1000 | 100 to 1000 |  |
| Clc1ccc(Cl)c(-c2nc3n(c2-c2ccc4ncccc4c2)CCC3)c1 [Compound 343, 6-(2-(2,5-dichlorophenyl)-6,7-dihydro-5H-pyrrolo[1,2-a]imidazol-3-yl)quinoline] | 100 to 1000 | 100 to 1000 |  |  |  |
| Nc1ncnc2ccc(-c3c(-c4cc(F)cc(F)c4F)nc4n3CCC4)cc12 [Compound 344, 6-(2-(2,3,5-trifluorophenyl)-6,7-dihydro-5H-pyrrolo[1,2-a]imidazol-3-yl)quinazolin-4-amine] |  |  | 100 to 1000 | 100 to 1000 |  |
| Nc1ncnc2ccc(-c3c(-c4cc(F)c(F)cc4F)nc4n3CCC4)cc12 [Compound 345, 6-(2-(2,4,5-trifluorophenyl)-6,7-dihydro-5H-pyrrolo[1,2-a]imidazol-3-yl)quinazolin-4-amine] |  |  | < 50 | 50 to 100 |  |
| Nc1ncnc2ccc(-c3c(-c4cc(Cl)ccc4F)nc4n3CCC4)cc12 [Compound 346, 6-(2-(5-chloro-2-fluorophenyl)-6,7-dihydro-5H-pyrrolo[1,2-a]imidazol-3-yl)quinazolin-4-amine] |  |  | < 50 | < 50 |  |
| Nc1ncnc2ccc(-c3c(-c4ccc(F)c(Cl)c4)nc4n3CCC4)cc12 [Compound 347, 6-(2-(3-chloro-4-fluorophenyl)-6,7-dihydro-5H-pyrrolo[1,2-a]imidazol-3-yl)quinazolin-4-amine] |  |  | 50 to 100 | 50 to 100 |  |
| Clc1ccc(Cl)c(-c2nc3n(c2-c2ccc4nccnc4c2)CCC3)c1 [Compound 348, 6-(2-(2,5-dichloropheny)-6,7-dihydro-5H-pyrrolo[1,2-a]imidazol-3-yl)quinoxaline] |  |  | < 50 | 50 to 100 |  |
| Clc1ccc(Cl)c(-c2nc3n(c2-c2ccc4ncsc4c2)CCC3)c1 [Compound 349, 6-(2-(2,5-dichlorophenyl)-6,7-dihydro-5H-pyrrolo[1,2-a]imidazol-3-yl)benzo[d]thiazole] | < 50 | 50 to 100 |  |  |  |
| Cc1ccc(Cl)cc1-c1nc2n(c1-c1ccc3ncsc3c1)CCC2 [Compound 350, 6-(2-(5-chloro-2-methylphenyl)-6,7-dihydro-5H-pyrrolo[1,2-a]imidazol-3-yl)benzo[d]thiazole] | 50 to 100 | 100 to 1000 |  |  |  |
| COc1ccc(-c2nc3n(c2-c2ccc4nccnc4c2)CCC3)cc1 [Compound 351, 6-(2-(4-methoxyphenyl)-6,7-dihydro-5H-pyrrolo[1,2-a]imidazol-3-yl)quinoxaline] | > 1000 | > 1000 |  |  |  |
| COc1ccc(-c2nc3n(c2-c2ccc4ncccc4c2)CCC3)cc1 [Compound 352, 6-(2-(4-methoxyphenyl)-6,7-dihydro-5H-pyrrolo[1,2-a]imidazol-3-yl)quinoline] | > 1000 | > 1000 |  |  |  |
